In patent publication US8129371B2, “Thienopyrimidine and pyrazolopyrimidine compounds and their use as mTOR kinase and PI3 kinase inhibitors” (Wyeth LLC, priority 2007, dated 2012):
Like-named read-outs stand apart in the source and are kept apart here.

Assays:
[1] = target: T1, Human mTOR (FLAG-TOR) (Homo sapiens, UniProt P42345); test: Human mTOR kinase assay with purified enzyme, DELFIA format; assay type: biochemical
T1 construct: FLAG
In short: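 Purified FLAG-mTOR in HEPES pH 7.4 buffer with 10 mM MnCl2 was preincubated with inhibitor and reacted 2 h at room temperature with His6-S6K substrate, then stopped with EDTA/EGTA. Phospho-T389 S6K detected by DELFIA with Eu-labelled antibody (40 ng/mL) after plate capture; inhibition computed from signal.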

[2] = target: T2, PI3K (Homo sapiens, UniProt P42336); test: Fluorescence polarization assay for PI3K; assay type: biochemical; conditions: read-out: PI3 Kinase α IC50
T2 construct: PI3 Kinase α IC50; other: PI3 Kinase α; other: PI3 Kinase α isoform, fluorescence polarization
T2 sequence (P42336 whole entry, canonical isoform): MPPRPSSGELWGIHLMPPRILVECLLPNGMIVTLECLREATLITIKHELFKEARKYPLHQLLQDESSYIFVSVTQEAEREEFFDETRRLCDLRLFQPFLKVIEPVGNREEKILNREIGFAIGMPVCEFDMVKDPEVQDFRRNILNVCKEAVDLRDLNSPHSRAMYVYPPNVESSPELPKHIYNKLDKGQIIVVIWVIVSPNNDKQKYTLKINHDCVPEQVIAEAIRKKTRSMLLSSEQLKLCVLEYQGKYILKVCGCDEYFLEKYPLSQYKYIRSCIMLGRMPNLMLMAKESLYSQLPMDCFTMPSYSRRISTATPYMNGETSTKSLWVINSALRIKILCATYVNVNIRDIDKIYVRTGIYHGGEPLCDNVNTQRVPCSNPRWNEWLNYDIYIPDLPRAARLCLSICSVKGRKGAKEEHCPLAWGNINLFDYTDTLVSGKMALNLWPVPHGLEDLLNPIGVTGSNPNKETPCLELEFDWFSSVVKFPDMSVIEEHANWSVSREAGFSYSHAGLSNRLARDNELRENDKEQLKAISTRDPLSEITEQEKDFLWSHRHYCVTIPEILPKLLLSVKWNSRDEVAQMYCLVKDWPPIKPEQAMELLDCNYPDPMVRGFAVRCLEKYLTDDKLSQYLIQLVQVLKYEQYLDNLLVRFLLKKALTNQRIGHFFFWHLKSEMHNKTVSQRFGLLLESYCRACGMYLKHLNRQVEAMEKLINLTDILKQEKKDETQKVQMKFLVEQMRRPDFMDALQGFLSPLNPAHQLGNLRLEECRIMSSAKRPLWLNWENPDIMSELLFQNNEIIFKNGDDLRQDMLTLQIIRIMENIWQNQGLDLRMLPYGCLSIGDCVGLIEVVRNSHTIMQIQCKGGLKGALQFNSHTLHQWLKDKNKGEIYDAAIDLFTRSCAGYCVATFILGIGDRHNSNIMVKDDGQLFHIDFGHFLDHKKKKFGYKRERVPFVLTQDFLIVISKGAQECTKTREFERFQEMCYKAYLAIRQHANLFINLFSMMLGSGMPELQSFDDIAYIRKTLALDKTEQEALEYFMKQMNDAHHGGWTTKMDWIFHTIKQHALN
In short: (§1)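 PI3K was preincubated with compound (final DMSO 1%), and the reaction was started with PIP2/ATP substrate and run 30–60 min. It was stopped with a detector mix giving 10 nM red probe and 70 nM GST-GRP.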

[3] = target: T3, PI3K (Homo sapiens, UniProt P48736); test: Fluorescence polarization assay for PI3K; assay type: biochemical; conditions: read-out: PI3 Kinase γ IC50
T3 construct: PI3 Kinase γ IC50; other: PI3 Kinase γ; other: PI3 Kinase γ isoform, fluorescence polarization
T3 sequence (P48736 whole entry, canonical isoform): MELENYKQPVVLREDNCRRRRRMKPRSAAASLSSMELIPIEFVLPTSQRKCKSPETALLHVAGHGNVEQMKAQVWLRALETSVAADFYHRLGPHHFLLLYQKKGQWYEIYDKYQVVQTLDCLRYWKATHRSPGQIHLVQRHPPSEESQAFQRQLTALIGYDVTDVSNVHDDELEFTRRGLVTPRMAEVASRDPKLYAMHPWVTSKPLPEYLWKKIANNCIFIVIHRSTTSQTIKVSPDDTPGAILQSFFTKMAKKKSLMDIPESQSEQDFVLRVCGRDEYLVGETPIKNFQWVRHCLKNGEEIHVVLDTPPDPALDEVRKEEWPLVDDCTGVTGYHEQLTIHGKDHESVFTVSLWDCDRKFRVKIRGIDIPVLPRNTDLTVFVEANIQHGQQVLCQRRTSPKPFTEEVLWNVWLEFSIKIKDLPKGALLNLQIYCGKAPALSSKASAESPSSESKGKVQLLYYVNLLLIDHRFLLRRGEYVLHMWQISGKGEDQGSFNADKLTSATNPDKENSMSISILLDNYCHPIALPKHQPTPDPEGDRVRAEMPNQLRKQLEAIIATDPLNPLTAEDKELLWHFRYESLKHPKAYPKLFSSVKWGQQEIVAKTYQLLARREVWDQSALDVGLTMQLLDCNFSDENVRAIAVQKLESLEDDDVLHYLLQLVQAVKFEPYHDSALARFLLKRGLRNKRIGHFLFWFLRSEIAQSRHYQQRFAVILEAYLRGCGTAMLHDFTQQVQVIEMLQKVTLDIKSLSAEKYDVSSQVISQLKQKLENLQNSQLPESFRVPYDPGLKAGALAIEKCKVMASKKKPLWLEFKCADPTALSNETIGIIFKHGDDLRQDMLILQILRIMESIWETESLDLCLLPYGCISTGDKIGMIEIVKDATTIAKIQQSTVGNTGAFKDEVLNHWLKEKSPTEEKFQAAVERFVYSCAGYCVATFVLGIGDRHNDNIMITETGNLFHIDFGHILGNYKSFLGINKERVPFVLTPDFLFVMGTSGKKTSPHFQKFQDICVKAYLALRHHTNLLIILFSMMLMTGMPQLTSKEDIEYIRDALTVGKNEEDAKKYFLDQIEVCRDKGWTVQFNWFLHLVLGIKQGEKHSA
In short: as §1

[4] = system: prostate line LNCap; test: In vitro cell culture growth assay (MTS), LNCap; assay type: cell-based; conditions: Homo sapiens, LNCaP, 72 h, LNCap cells, three days after drug treatment
In short: (§2)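 Inhibitors were added one day after plating, and viable cells were measured 3 days later by MTS conversion (absorbance 490 nm).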

[5] = system: breast line MDA468; test: In vitro cell culture growth assay (MTS), MDA468; assay type: cell-based; conditions: Homo sapiens, 72 h, MDA468 cells, three days after drug treatment
In short: as §2

[6] = purified human mTOR enzyme, DELFIA format
[7] = PI3 Kinase α isoform, fluorescence polarization
[8] = PI3 Kinase γ isoform, fluorescence polarization

Structure (SMILES) | IC50 [1] [nM] | IC50 ([2]; PI3 Kinase α) [nM] | IC50 ([3]; PI3 Kinase γ) [µM] | IC50 [4] [nM] | IC50 [1, 6] [nM] | IC50 [2, 7] [nM] | IC50 [3, 8] [µM] | IC50 [5] [nM]
N#CCCn1ncc2c(N3CC4CCC(C3)O4)nc(-c3ccc(NC(=O)Nc4ccc(N5CCOCC5)cc4)cc3)nc21 [Example 221, 1-{4-[1-(2-cyanoethyl)-4-(8-oxa-3-azabicyclo[3.2.1]oct-3-yl)-1H-pyrazolo[3,4-d]pyrimidin-6-yl]phenyl}-3-(4-morpholin-4-ylphenyl)urea] | 0.235 | 444 | 4.79 | < 1 |  |  |  | 3
COC(=O)N1CCC(n2ncc3c(N4C5CCC4COC5)nc(-c4ccc(NC(=O)Nc5ccncc5)cc4)nc32)CC1 [Example 362, methyl 4-[4-(3-oxa-8-azabicyclo[3.2.1]oct-8-yl)-6-{4-[(pyridin-4-ylcarbamoyl)amino]phenyl}-1H-pyrazolo[3,4-d]pyrimidin-1-yl]piperidine-1-carboxylate] |  |  |  | 3 | 0.26 | 1930 | 2 | 10
O=C(Nc1ccc(-c2nc(N3C4CCC3COC4)c3cnn(CC(F)(F)F)c3n2)cc1)OCCO [Example 266, 2-hydroxyethyl {4-[4-(3-oxa-8-azabicyclo[3.2.1]oct-8-yl)-1-(2,2,2-trifluoroethyl)-1H-pyrazolo[3,4-d]pyrimidin-6-yl]phenyl}carbamate] | 0.615 | 2720 | > 10 | 27 |  |  |  | 180
O=C(Nc1ccc(-c2nc(N3CC4CCC(C3)O4)c3cnn(C4CCN(CC(F)(F)F)CC4)c3n2)cc1)OCCO [Example 209, 2-hydroxyethyl (4-{4-(8-oxa-3-azabicyclo[3.2.1]oct-3-yl)-1-[1-(2,2,2-trifluoroethyl)piperidin-4-yl]-1H-pyrazolo[3,4-d]pyrimidin-6-yl}phenyl)carbamate] | 2.25 | 3710 | 4.95 | 40 |  |  |  | 600
CCn1ncc2c(N3CC4CCC(C3)O4)nc(-c3ccc(NC(=O)Nc4ccc(OCCO)cc4)cc3)nc21 [Example 281, 1-{4-[1-ethyl-4-(8-oxa-3-azabicyclo[3.2.1]oct-3-yl)-1H-pyrazolo[3,4-d]pyrimidin-6-yl]phenyl}-3-[4-(2-hydroxyethoxy)phenyl]urea] | 1.07 | 173 | 1.1 | 4 |  |  |  | 19
CNC(=O)Nc1ccc(-c2nc(N3CC4CCC(C3)O4)c3cnn(CCN(C)C)c3n2)cc1 [Example 153, 1-(4-{1-[2-(dimethylamino)ethyl]-4-(8-oxa-3-azabicyclo[3.2.1]oct-3-yl)-1H-pyrazolo[3,4-d]pyrimidin-6-yl}phenyl)-3-methylurea] | 14.5 | 966 | 4.24 | 400 |  |  |  | 2200
O=C(Nc1ccc(-c2nc(N3C4CCC3COC4)c3cnn(CC(F)(F)F)c3n2)cc1)Nc1ccc(N2CCNCC2)cc1 [Example 318, 1-{4-[4-(3-oxa-8-azabicyclo[3.2.1]oct-8-yl)-1-(2,2,2-trifluoroethyl)-1H-pyrazolo[3,4-d]pyrimidin-6-yl]phenyl}-3-(4-piperazin-1-ylphenyl)urea] |  |  |  | < 1 | 0.19 | 173 | 2.27 | 1
CN(C)CCOc1ccc(NC(=O)Nc2ccc(-c3nc(N4C5CCC4COC5)c4cnn(CC(F)(F)F)c4n3)cc2)cc1 [Example 275, 1-{4-[2-(dimethylamino)ethoxy]phenyl}-3-{4-[4-(3-oxa-8-azabicyclo[3.2.1]oct-8-yl)-1-(2,2,2-trifluoroethyl)-1H-pyrazolo[3,4-d]pyrimidin-6-yl]phenyl}urea] | 0.575 | 275 | 3.11 | < 1 |  |  |  | < 1
N#CCCn1ncc2c(N3CC4CCC(C3)O4)nc(-c3ccc(NC(=O)NC4CC4)cc3)nc21 [Example 215, 1-{4-[1-(2-cyanoethyl)-4-(8-oxa-3-azabicyclo[3.2.1]oct-3-yl)-1H-pyrazolo[3,4-d]pyrimidin-6-yl]phenyl}-3-cyclopropylurea] | 1.35 | 3600 | > 10 | 78 |  |  |  | 800
CCNC(=O)Nc1ccc(-c2nc(N3CC4CCC(C3)O4)c3cnn(Cc4ccccc4)c3n2)cc1 [Example 78, 1-{4-[1-benzyl-4-(8-oxa-3-azabicyclo[3.2.1]oct-3-yl)-1H-pyrazolo[3,4-d]pyrimidin-6-yl]phenyl}-3-ethylurea] | 2.6 | > 10000 | > 10 | 170 |  |  |  | 1050

Further lines, with some results ahead:

IC50 [1] [nM] | IC50 ([2]; PI3 Kinase α) [nM] | IC50 ([3]; PI3 Kinase γ) [µM] | IC50 [4] [nM] | IC50 [1, 6] [nM] | IC50 [2, 7] [nM] | IC50 [3, 8] [µM] | Structure (SMILES) | IC50 [5] [nM]
0.575 | 53 | 0.534 | < 1 |  |  |  | CCn1ncc2c(N3CC4CCC(C3)O4)nc(-c3ccc(NC(=O)Nc4ccc(N5CCNCC5)cc4)cc3)nc21 [Example 288, 1-{4-[1-ethyl-4-(8-oxa-3-azabicyclo[3.2.1]oct-3-yl)-1H-pyrazolo[3,4-d]pyrimidin-6-yl]phenyl}-3-(4-piperazin-1-ylphenyl)urea] | 50
 |  |  | 4 | 1.3 | 6 | 0.522 | CS(=O)(=O)N1CCN(Cc2cc3nc(-c4ccc(NC(=O)Nc5ccccc5)cc4)nc(N4CC5CCC(C4)O5)c3s2)CC1 [Example 432, 1-{4-[6-{[4-(methylsulfonyl)piperazin-1-yl]methyl}-4-(8-oxa-3-azabicyclo[3.2.1]oct-3-yl)thieno[3,2-d]pyrimidin-2-yl]phenyl}-3-phenylurea] | 37
 |  |  | 1200 | 66.5 | 2390 | > 10 | CCn1nc(CN2CCCC2)c2c(N3CC4CCC(C3)O4)nc(-c3ccc(NC(=O)NC)cc3)nc21 [Example 354, 1-{4-[1-ethyl-4-(8-oxa-3-azabicyclo[3.2.1]oct-3-yl)-3-(pyrrolidin-1-ylmethyl)-1H-pyrazolo[3,4-d]pyrimidin-6-yl]phenyl}-3-methylurea] | 2900
 |  |  | 290 | 10.9 | 448 | 0.372 | CCn1nc(N2CCCC2)c2c(N3CC4CCC(C3)O4)nc(-c3ccc(NC(=O)Nc4cccnc4)cc3)nc21 [Example 346, 1-{4-[1-ethyl-4-(8-oxa-3-azabicyclo[3.2.1]oct-3-yl)-3-pyrrolidin-1-yl-1H-pyrazolo[3,4-d]pyrimidin-6-yl]phenyl}-3-pyridin-3-ylurea] | 950
 |  |  | 220 | 0.385 | 217 | 1.12 | CN1CCN(C2CCC(n3ncc4c(N5CC6CCC(C5)O6)nc(-c5ccc(NC(=O)Nc6ccccc6)cc5)nc43)CC2)CC1 (centres unmarked) [Example 373, 1-(4-{1-[4-(4-methylpiperazin-1-yl)cyclohexyl]-4-(8-oxa-3-azabicyclo[3.2.1]oct-3-yl)-1H-pyrazolo[3,4-d]pyrimidin-6-yl}phenyl)-3-phenylurea] | 200
 |  |  | 2 | 0.285 | 909 | > 10 | CNC(=O)Nc1ccc(-c2nc(N3CC4CCC(C3)O4)c3cnn(C4CCC5(CCCO5)CC4)c3n2)cc1 (single isomer, unassigned) [Example 389, 1-methyl-3-(4-{4-(8-oxa-3-azabicyclo[3.2.1]oct-3-yl)-1-[(5r,8r)-1-oxaspiro[4.5]dec-8-yl]-1H-pyrazolo[3,4-d]pyrimidin-6-yl}phenyl)urea] | 17
 |  |  | < 1 | 1.25 | 1220 | 10.4 | O=C(Nc1ccc(-c2nc(N3C[C@@H]4C[C@H]3CO4)c3cnn(CC(F)(F)F)c3n2)cc1)Nc1ccc(N2CCOCC2)cc1 [Example 298, 1-(4-morpholin-4-ylphenyl)-3-(4-{4-[(1S,4S)-2-oxa-5-azabicyclo[2.2.1]hept-5-yl]-1-(2,2,2-trifluoroethyl)-1H-pyrazolo[3,4-d]pyrimidin-6-yl}phenyl)urea] | 1
 |  |  | 2 | 1.6 | 601 | 4.98 | COCC(COC)n1ncc2c(N3CC4CCC(C3)O4)nc(-c3ccc(NC(=O)Nc4ccncc4)cc3)nc21 [Example 325, 1-(4-{1-[2-methoxy-1-(methoxymethyl)ethyl]-4-(8-oxa-3-azabicyclo[3.2.1]oct-3-yl)-1H-pyrazolo[3,4-d]pyrimidin-6-yl}phenyl)-3-pyridin-4-ylurea] | 19
0.975 | 373 | 4.75 | < 1 |  |  |  | CCn1ncc2c(N3CC4CCC(C3)O4)nc(-c3ccc(NC(=O)Nc4ccc(OCCN5CCOCC5)nc4)cc3)nc21 [Example 283, 1-{4-[1-ethyl-4-(8-oxa-3-azabicyclo[3.2.1]oct-3-yl)-1H-pyrazolo[3,4-d]pyrimidin-6-yl]phenyl}-3-[6-(2-morpholin-4-ylethoxy)pyridin-3-yl]urea] | 8
